# Data as given in patent US11786595B2, “Methods for radiotherapy to trigger light activation drugs” (priority 2015, dated 2023).
# Assays:
# [1] = system: Zaire Ebola virus (ZEBOV); settings: cited from earlier work
# [2] = system: Venezuelan equine encephalitis virus (VEEV); settings: cited from earlier work
# [3] = system: B16 melanoma cells; assay: CellTiter-Glo luminescence (cell viability) versus TMP concentration, with or without Cherenkov light; type: cell-based; settings: 6 MV x-rays at 2 Gy, 48-hour incubation, with Cherenkov light vs without
# [4] = system: B16 melanoma cells; assay: Flow cytometry of MHC class I expression after X-ray/Cherenkov exposure; type: cell-based; settings: 72 hour incubation
# [5] = system: Acinetobacter baumannii; settings: loaded into MCM-41 host, visible light 100 milliWatts per square centimeter; cited from earlier work
molecule,measurement,setting,value
"[N-]=[N+]=Nc1cccc2c(I)cccc12 [INA, 1,5-iodonaphthyl-azide]",virus infectivity after INA treatment,[1],completely noninfectious
same,virus inactivation,[2],efficiently inactivate
"Cc1cc2cc3c(C)cc(=O)oc3c(C)c2o1 [TMP, 4,5′,8-trimethyl psoralen]",cell viability / cell kill,[3],cell viability is reduced
same,MHC 1 expression,[4]; 15 MV X-ray exposure with Cherenkov light,13.7%
same,MHC 1 expression,[4]; control with no Cherenkov (x-rays only),8.01%
same,MHC 1 expression,[4]; control with no x-rays,5.46%
[Mn(PaPy3)(NO)](ClO4) [{Mn—NO}],clearing of bacteria by released nitric oxide,[5],effectively cleared the bacteria
